Data taken from ChEMBL document CHEMBL3616440, “Non-basic azolotriazinone MCHR1 antagonists for the treatment of obesity: An empirical brain-exposures-driven candidate selection for in vivo efficacy studies” (Bioorg Med Chem Lett, 2015).

Experiments:
Rattus norvegicus [1] = experiment: Antiobesity activity in Sprague-Dawley rat assessed as body weight reduction at 10 mg/kg, po qd after 4 days relative to control; type: functional; conditions: 96 h
Liver [2] = experiment: Prodrug conversion in Sprague-Dawley rat liver assessed as 6-(4-chlorophenyl)-3-(4-(2,3-dihydroxy-2-methylpropoxy)-3-methoxyphenyl)pyrrolo[1,2-f][1,2,4]triazin-4(3H)-one formation at 10 mg/kg, po qd at 20 hrs post dose; type: ADME, organism-based; conditions: in vivo
Rattus norvegicus [3] = experiment: Antiobesity activity in Sprague-Dawley rat assessed as body weight reduction at 30 mg/kg, po qd after 4 days relative to control; type: functional; conditions: 96 h
[4] = Ratio of free drug level in brain of Sprague-Dawley rat assessed as 6-(4-chlorophenyl)-3-(4-(2-hydroxy-2-methylpropoxy)-3-methoxyphenyl)pyrrolo[1,2-f][1,2,4]triazin-4(3H)-one level at 10 mg/kg, po to Ki for rat MCHR1; type: ADME, organism-based; conditions: in vivo
Brain [5] = experiment: Drug concentration in Sprague-Dawley rat brain assessed as 6-(4-chlorophenyl)-3-(4-(2-hydroxy-2-methylpropoxy)-3-methoxyphenyl)pyrrolo[1,2-f][1,2,4]triazin-4(3H)-one level at 3 mg/kg, po qd at 20 hrs; type: ADME, organism-based; conditions: in vivo, read-out: Drug uptake
Liver [6] = experiment: Prodrug conversion in Sprague-Dawley rat liver assessed as 3-(4-(6-(4-chlorophenyl)-4-oxopyrrolo[1,2-f][1,2,4]triazin-3(4H)-yl)-2-methoxyphenoxy)-2-hydroxy-2-methylpropanoic acid formation at 10 mg/kg, po qd at 20 hrs post dose; type: ADME, organism-based; conditions: in vivo
Nucleic Acid = experiment: Ratio of drug level in Sprague-Dawley rat brain to plasma assessed as 6-(4-chlorophenyl)-3-(4-(2-hydroxy-2-methylpropoxy)-3-methoxyphenyl)pyrrolo[1,2-f][1,2,4]triazin-4(3H)-one level at 10 mg/kg, po qd; type: ADME, organism-based
[7] = AUC (0 to 8 hrs ) in Sprague-Dawley rat at 10 mg/kg, po qd; type: ADME, organism-based; design: time < 8 hr, dose 10 mg/kg, route oral; conditions: in vivo
Rattus norvegicus [8] = experiment: Cmax in Sprague-Dawley rat assessed as 6-(4-chlorophenyl)-3-(4-(2-hydroxy-2-methylpropoxy)-3-methoxyphenyl)pyrrolo[1,2-f][1,2,4]triazin-4(3H)-one level at 10 mg/kg, po qd at 4 hrs; type: ADME, organism-based; design: dose 10 mg/kg, route oral; conditions: in vivo
Brain [9] = experiment: Drug concentration in Sprague-Dawley rat brain assessed as 6-(4-chlorophenyl)-3-(4-(2-hydroxy-2-methylpropoxy)-3-methoxyphenyl)pyrrolo[1,2-f][1,2,4]triazin-4(3H)-one level at 10 mg/kg, po qd at 8 hrs; type: ADME, organism-based; conditions: in vivo
[10] = Cmax in Sprague-Dawley rat at 10 mg/kg, po qd after 1.5 hrs; type: ADME, organism-based; design: dose 10 mg/kg, route oral; conditions: in vivo
Rattus norvegicus [11] = experiment: Antiobesity activity in Sprague-Dawley rat assessed as body weight reduction at 3 mg/kg, po qd after 4 days relative to control; type: functional; conditions: 96 h
Brain [12] = experiment: Free drug level in Sprague-Dawley rat brain assessed as 6-(4-chlorophenyl)-3-(4-(2-hydroxy-2-methylpropoxy)-3-methoxyphenyl)pyrrolo[1,2-f][1,2,4]triazin-4(3H)-one level at 30 mg/kg, po qd at 20 hrs; type: ADME, organism-based; conditions: in vivo
Rattus norvegicus [13] = experiment: AUC (0 to 8 hrs ) in Sprague-Dawley rat assessed as 6-(4-chlorophenyl)-3-(4-(2-hydroxy-2-methylpropoxy)-3-methoxyphenyl)pyrrolo[1,2-f][1,2,4]triazin-4(3H)-one level at 10 mg/kg, po qd; type: ADME, organism-based; design: dose 10 mg/kg, time < 8 hr, route oral; conditions: in vivo
Plasma [14] = experiment: Fraction unbound in Sprague-Dawley rat plasma assessed as 6-(4-chlorophenyl)-3-(4-(2-hydroxy-2-methylpropoxy)-3-methoxyphenyl)pyrrolo[1,2-f][1,2,4]triazin-4(3H)-one level; type: ADME, cell-free
Plasma [15] = experiment: Plasma concentration in Sprague-Dawley rat assessed as 6-(4-chlorophenyl)-3-(4-(2-hydroxy-2-methylpropoxy)-3-methoxyphenyl)pyrrolo[1,2-f][1,2,4]triazin-4(3H)-one level at 10 mg/kg, po qd at 8 hrs; type: ADME, organism-based; conditions: in vivo
Brain [16] = experiment: Free drug level in Sprague-Dawley rat brain assessed as 6-(4-chlorophenyl)-3-(4-(2-hydroxy-2-methylpropoxy)-3-methoxyphenyl)pyrrolo[1,2-f][1,2,4]triazin-4(3H)-one level at 10 mg/kg, po qd at 20 hrs; type: ADME, organism-based; conditions: in vivo
Brain [17] = experiment: Drug concentration in Sprague-Dawley rat brain assessed as 6-(4-chlorophenyl)-3-(4-(2-hydroxy-2-methylpropoxy)-3-methoxyphenyl)pyrrolo[1,2-f][1,2,4]triazin-4(3H)-one level at 30 mg/kg, po qd at 20 hrs; type: ADME, organism-based; conditions: in vivo, read-out: Drug uptake
Brain [18] = experiment: Drug concentration in Sprague-Dawley rat brain assessed as 6-(4-chlorophenyl)-3-(4-(2-hydroxy-2-methylpropoxy)-3-methoxyphenyl)pyrrolo[1,2-f][1,2,4]triazin-4(3H)-one level at 10 mg/kg, po qd at 20 hrs; type: ADME, organism-based; conditions: in vivo, read-out: Drug uptake
Brain [19] = experiment: Free drug level in Sprague-Dawley rat brain assessed as 6-(4-chlorophenyl)-3-(4-(2-hydroxy-2-methylpropoxy)-3-methoxyphenyl)pyrrolo[1,2-f][1,2,4]triazin-4(3H)-one level at 3 mg/kg, po qd at 20 hrs; type: ADME, organism-based; conditions: in vivo
Liver [20] = experiment: Prodrug conversion in Sprague-Dawley rat liver assessed as 6-(4-chlorophenyl)-3-(4-(2,3-dihydroxypropoxy)-3-methoxyphenyl)pyrrolo[1,2-f][1,2,4]triazin-4(3H)-one formation at 10 mg/kg, po qd at 20 hrs post dose; type: ADME, organism-based; conditions: in vivo
Liver [21] = experiment: Prodrug conversion in Sprague-Dawley rat liver assessed as 3-(4-(6-(4-chlorophenyl)-4-oxopyrrolo[1,2-f][1,2,4]triazin-3(4H)-yl)-2-methoxyphenoxy)-2-hydroxypropanoic acid formation at 10 mg/kg, po qd at 20 hrs post dose; type: ADME, organism-based; conditions: in vivo
[22] = Ratio of free drug level in brain of Sprague-Dawley rat assessed as 6-(4-chlorophenyl)-3-(4-(2-hydroxy-2-methylpropoxy)-3-methoxyphenyl)pyrrolo[1,2-f][1,2,4]triazin-4(3H)-one level at 3 mg/kg, po to Ki for rat MCHR1; type: ADME, organism-based; conditions: in vivo
[23] = Ratio of free drug level in brain of Sprague-Dawley rat assessed as 6-(4-chlorophenyl)-3-(4-(2-hydroxy-2-methylpropoxy)-3-methoxyphenyl)pyrrolo[1,2-f][1,2,4]triazin-4(3H)-one level at 30 mg/kg, po to Ki for rat MCHR1; type: ADME, organism-based; conditions: in vivo
Rattus norvegicus [24] = experiment: Toxicity in oral-dosed Sprague-Dawley rat assessed as biliary lesion after 30 days; type: organism-based; conditions: in vivo, 720 h
Brain [25] = experiment: Drug concentration in Sprague-Dawley rat brain assessed as 6-(4-chlorophenyl)-3-(4-(2-hydroxy-2-methylpropoxy)-3-methoxyphenyl)thieno[3,2-d]pyrimidin-4(3H)-one level at 10 mg/kg, po qd at 20 hrs; type: ADME, organism-based; conditions: in vivo, read-out: Drug uptake
[26] = target: Melanin-concentrating hormone receptor 1 (Rattus norvegicus, UniProt P97639); experiment: Displacement of [125I][Phe13,Tyr19]-MCH from rat MCHR1 by scintillation counting analysis
Melanin-concentrating hormone receptor 1 (Rattus norvegicus, UniProt P97639), sequence (P97639 whole entry): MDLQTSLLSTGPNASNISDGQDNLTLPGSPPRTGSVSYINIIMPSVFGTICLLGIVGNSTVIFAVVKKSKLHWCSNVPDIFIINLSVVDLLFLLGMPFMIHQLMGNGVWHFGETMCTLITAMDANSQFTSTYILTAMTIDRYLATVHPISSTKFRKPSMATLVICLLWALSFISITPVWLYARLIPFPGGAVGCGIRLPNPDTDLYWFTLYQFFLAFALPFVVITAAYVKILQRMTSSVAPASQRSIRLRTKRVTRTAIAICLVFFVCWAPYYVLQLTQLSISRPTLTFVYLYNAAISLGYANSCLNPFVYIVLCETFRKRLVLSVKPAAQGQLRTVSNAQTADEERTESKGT

[27] = target: Melanin-concentrating hormone receptor 1 (Rattus norvegicus) (UniProt P97639); conditions: 10 uM
Melanin-concentrating hormone receptor 1 (Rattus norvegicus), sequence (P97639 whole entry): as above
Description: Displacement of [125I][Phe13,Tyr19]-MCH from rat MCHR1 at 10 uM by scintillation counting analysis

[28] = target: Melanin-concentrating hormone receptor 1 (Homo sapiens, UniProt Q99705); experiment: Antagonist activity at human MCHR1 expressed in HEK293 cells assessed as inhibition of MCH-induced Ca2+ influx for 120 mins by FLIPR assay; type: functional, cell-based
Melanin-concentrating hormone receptor 1 (Homo sapiens, UniProt Q99705), sequence (Q99705 whole entry): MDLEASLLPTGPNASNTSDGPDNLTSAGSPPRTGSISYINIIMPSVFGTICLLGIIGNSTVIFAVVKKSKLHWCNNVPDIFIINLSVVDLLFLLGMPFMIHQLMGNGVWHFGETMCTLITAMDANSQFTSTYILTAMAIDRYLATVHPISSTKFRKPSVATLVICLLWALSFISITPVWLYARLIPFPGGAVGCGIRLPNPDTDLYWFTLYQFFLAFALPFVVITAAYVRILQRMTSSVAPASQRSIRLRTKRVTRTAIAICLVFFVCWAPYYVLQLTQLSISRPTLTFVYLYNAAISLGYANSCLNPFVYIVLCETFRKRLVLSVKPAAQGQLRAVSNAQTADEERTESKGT

Rattus norvegicus [29] = experiment: Toxicity in oral-dosed Sprague-Dawley rat assessed as biliary lesion after 4 days; type: organism-based; conditions: in vivo, 96 h

With `COc1cc(-n2cnn3cc(-c4ccc(Cl)cc4)cc3c2=O)ccc1OCC(C)(C)OC(=O)CN` the inhibition in vivo at 10 mg/kg (Rattus norvegicus [1]) was 4.7%, the Drug metabolism (Liver [2]) was 10 µM and the inhibition in vivo at 30 mg/kg (Rattus norvegicus [3]) was 6.9%. It also gave a Ratio [4] of 8.9, a concentration (Brain [5]) of 1570 nM and a Drug metabolism (Liver [6]) of 2.4 µM. For the same molecule, the BPR (Nucleic Acid) was 5, the AUC at 8 h [7] was 0.015 µM·h and the Cmax (Rattus norvegicus [8]) was 1570 nM. For the same molecule, the Drug uptake (Brain [9]) was 4.551 µM, the Cmax [10] was 5 nM and the inhibition in vivo at 3 mg/kg (Rattus norvegicus [11]) was 3.6%. The “Drug uptake(free)” value (Brain [12]) was 47 nM, the AUC (Rattus norvegicus [13]) was 8.2 µM·h and the Fu (Plasma [14]) was 0.4%. For the same molecule, the concentration (Plasma [15]) was 903 nM, the “Drug uptake(free)” value (Brain [16]) was 16 nM and the concentration (Brain [17]) was 11700 nM. The concentration (Brain [18]) was 4040 nM, the “Drug uptake(free)” value (Brain [19]) was 6.3 nM and the Drug metabolism (Liver [20]) was 10 µM. It also gave a Drug metabolism (Liver [21]) of 2.4 µM, a Ratio [22] of 3.5 and a Ratio [23] of 26.

With `COc1cc(-n2cnc3cc(-c4ccc(Cl)cc4)sc3c2=O)ccc1OCC(C)(C)O` the Activity (Rattus norvegicus [24]) was “Toxic”, the concentration (Brain [25]) was 1610 nM and the Ki [26] was 7.2 nM. For the same molecule, the inhibition [27] was > 90% and the IC50 [28] was 16 nM.

In the case of `COc1cc(-n2cnc3cc(-c4ccc(Cl)cc4)sc3c2=O)ccc1OCC(C)O` (stereo not given), the Activity (Rattus norvegicus [29]) is reported as “Toxic”.
